According to PubChem BioAssay (NCI):
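Cells were grown in 96-well plates and exposed to each compound for 48 hours at five concentrations; endpoints were interpolated linearly between bracketing concentrations, or set to the highest concentration if not reached. Here, GI50 denotes the concentration required for 50% inhibition of growth. Definition used: TGI = concentration required for complete inhibition of growth.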

How the values were obtained:
Assay in all cases: inhibition of tumour cell growth, NCI panel, 48 h
UACC-62 melanoma = system: UACC-62 melanoma
IGROV1 ovarian = system: IGROV1 ovarian
SF-539 CNS = system: SF-539 CNS
HS 578T breast = system: HS 578T breast
SNB-75 CNS = system: SNB-75 CNS
M14 melanoma = system: M14 melanoma
MOLT-4 leukemia = system: MOLT-4 leukemia
SK-OV-3 ovarian = system: SK-OV-3 ovarian
SNB-19 CNS = system: SNB-19 CNS
OVCAR-4 ovarian = system: OVCAR-4 ovarian

Structure (SMILES)	GI50 (UACC-62 melanoma) [µM]	TGI (UACC-62 melanoma) [µM]	GI50 (IGROV1 ovarian) [µM]	TGI (IGROV1 ovarian) [µM]	GI50 (SF-539 CNS) [µM]	TGI (SF-539 CNS) [µM]	GI50 (HS 578T breast) [µM]	TGI (HS 578T breast) [µM]	GI50 (SNB-75 CNS) [µM]	TGI (SNB-75 CNS) [µM]	GI50 (M14 melanoma) [µM]	TGI (M14 melanoma) [µM]	GI50 (MOLT-4 leukemia) [µM]	TGI (MOLT-4 leukemia) [µM]	GI50 (SK-OV-3 ovarian) [µM]	TGI (SK-OV-3 ovarian) [µM]	GI50 (SNB-19 CNS) [µM]	TGI (SNB-19 CNS) [µM]	GI50 (OVCAR-4 ovarian) [µM]	TGI (OVCAR-4 ovarian) [µM]
C[C@@]1(N2C(=O)OC[C@@H]2c2ccccc2)C(=O)N([C@H](CC(=O)N2CCC(N3CCCCC3)CC2)C(=O)NCc2cccc(C(F)(F)F)c2)[C@@H]1/C=C/c1ccccc1	1.85	3.78	2.73	8.49	1.77	3.32	2.09	4.78	1.28	2.95	1.93	3.6	2.26	6.42	2.09	4.83	2.55	6.56	2.6	9.86
CSc1nc2c(c(=O)[nH]1)C(c1ccc(Cl)cc1)C1=C(N2)/C(=C/c2ccc(Cl)cc2)CNC1 (configuration not stated)	2.02	4.5	2.56	7.04	1.78	3.5	3.6	84.1	2.69	11.5	2.23	6.18	2.45	11	2.66	6.33	2.31	8.29	4.76	19.2
Nc1c(C(=O)Nc2ccccc2)sc2nc3c(cc12)CCCC3	0.493	> 100	2.64	> 100	0.452	3.9	2.73	> 100	0.551	40.8	0.487	> 100	0.693	> 100	0.832	37.5	18.1	> 100	5.18	> 100
COC(=O)C1C2CCCN2OC1(C)CO (configuration not stated)		> 100		> 100		> 100		> 100		> 100		> 100		> 100		> 100		> 100		> 100
CCN(CC)CC(O)C1CCC(c2ccccc2)CC1 (configuration not stated)		30.9		> 100		40.2		> 100		64.4		80.4		> 100		36.6		> 100		
COC(=O)c1ccc(C2SCC(=O)N2NC(=O)C(O)c2ccccc2)cc1 (configuration not stated)	> 100	> 100	> 100	> 100	> 100	> 100	> 100	> 100	> 100	> 100	> 100	> 100	> 100	> 100	> 100	> 100	> 100	> 100	> 100	> 100
Cc1ccccc1/C=C1\CN(C(=O)OC(C)(C)C)C/C(=C\c2ccccc2C)C1=O	2	4.42	2.26	6.26	1.94	3.64	3.99	83.1	2.71	9.34	2.97	13.5	2.9	21.8	5.77	70.5	1.81	4.38	2.6	14.1
COc1ccc(-c2nocc2-c2cc(OC)c(OC)c(OC)c2)cc1	0.0489	18.9	0.346	> 100	0.132	20.7	0.216	> 100	0.0751	> 100	0.054	5.82	0.3	> 100	0.142	> 82.8	0.175	> 100	2.21	> 100
CC(C)[C@@H]1CC[C@@H]2[C@@H]1[C@H](OC(=O)/C=C/c1ccccc1)[C@]1(C(C)C)C[C@@H](OC(=O)CO)[C@@]2(C)O1	4.94	9.97	6.79	12.5	5.25	10.2	0.00325	0.0136	3.46	8.5	5.83	12.1	6.94	14.9	10.3	32.5	5.37	10.8	5.15	9.93
O=C(CCl)Nc1ccc2c(c1)C(=O)c1ccc(NC(=O)CCl)cc1C2=O	0.299	0.99	0.26	1.15	0.301	0.866	1.29	9.57	1.01	2.22	0.236	0.781	0.241	2.13	1.63	7.01	0.547	2.98		
